Tests used:
[1] = test system: human islets β-cells; experiment: Detection of IL-1β expressing β-cells in cultured human islets (double immunostaining); assay type: cell-based; details: 33.3 mM glucose, 4 days, co-incubation with IL-1Ra
Experimental: Islet isolation and culture. Islets were isolated from pancreases of eleven organ donors at the Department of Surgery, University of Geneva Medical Center, as described (32-34). The islet purity was >95%, as judged by dithizone staining (if this degree of purity was not primarily achieved by routine isolation, islets were handpicked). […] For long-term in vitro studies, the islets were cultured on extracellular matrix-coated plates derived from bovine corneal endothelial cells (Novamed Ltd., Jerusalem, Israel), allowing the cells to attach to the dishes and spread, preserving their functional integrity (7;35). Islets were cultured in CMRL 1066 medium containing 100 U/ml penicillin, 100 μg/ml streptomycin and 10% fetal calf serum (Gibco, Gaithersburg, Md.), hereinafter referred to as culture medium. Two days after plating, when most islets were attached and began to flatten, the medium was changed to culture medium containing 5.5, 11.1 or 33.3 mM glucose. In some experiments, islets were additionally cultured with 2 ng/ml recombinant human IL-1β, 1000 U/ml recombinant human IFNγ (ReproTech EC Ltd, London, UK), 500 ng/ml IL-1β receptor antagonist (IL-1Ra) (R&D Systems Inc., Minneapolis, Minn.), 1 ng/ml membrane bound Fas-ligand (FasL) (36) (upstate biotechnology, Lake Placid, N.Y.) or with 100 μM pyrrolidinedithiocarbamate (PDTC; Sigma; 2 h per 2 d of culture). […]

[2] = test system: IL-1Ra; experiment: IL-1Ra expression and release in human islets; assay type: cell-based; details: for IL-1Ra released into the culture medium and IL-1Ra mRNA: 10 to 500 nM leptin
Experimental: Islet isolation and cell culture. Islets were isolated from pancreases of ten organ donors at the Department of Surgery, University of Geneva Medical Center, as described (32-34). The islet purity was >95%, as judged by dithizone staining (if this degree of purity was not primarily achieved by routine isolation, islets were handpicked). […] For long-term in vitro studies, the islets were cultured on extracellular matrix-coated plates derived from bovine corneal endothelial cells (Novamed Ltd., Jerusalem, Israel), allowing the cells to attach to the dishes and spread, preserving their functional integrity (7;35). Islets were cultured in CMRL 1066 medium containing 100 U/ml penicillin, 100 μg/ml streptomycin and 10% fetal calf serum (Invitrogen Corporation, Paisley, U.K.), hereafter referred to as culture medium. Two days after plating, when most islets were attached and began to flatten, the medium was changed to culture medium containing 5.5, 11.1 or 33.3 mM glucose. In some experiments, islets were additionally cultured with 5, 10 or 500 nM rh leptin (PeproTech, London, UK), 500 ng/ml rh IL-1Ra (R&D Systems Inc., Minneapolis, Minn.) or 50 nM small interfering RNA (siRNA) as described below.
RNA interference. RNAs of 21 nucleotides, designed to target human IL-1Ra (5′AUCUGCAGAGGCCUCCGCAtt3′/5′UGCGGAGGCCUCUGCAGAUtt3′) and scrambled siRNA were synthesized by Ambion (Austin, Tex.). siRNAs were transfected using SiPortAmine™ according to the manufacturer's instructions (Ambion).
Detection of IL-1Ra and IL-1β expressing cells. Pancreases from routine necropsies were immersion-fixed in formalin, followed by paraffin embedding. In parallel, isolated human were cultured in a suspension for 48 hours and exposed to 10 nM leptin or 33.3 mM glucose, islets were fixed in Bouin solution for 15 min, resuspended in 40 μl of 2% melted agarose in PBS (40° C.), followed by rapid centrifugation and paraffin embedding. Sections were deparaffinized, rehydrated and then incubated in methanol for 4 min. Human islets cultured on extracellular matrix for 4 days were washed in PBS, fixed in 4% paraformaldehyde (30 min, room temperature) followed by permeabilization with 0.5% triton X-100 (4 min, room temperature). Pancreas and islet sections and cultured cells were double-labeled for IL-1Ra or IL-1β and insulin, CD68, glucagon or somatostatin by 1 h of exposure to 10% bovine serum albumin followed by incubation (1 h, 37° C.) with biotinylated goat anti-IL-1Ra or mouse anti-IL-1β antibodies (R&D Systems Inc.). Detection was performed using cy3-(Jackson, ImMunoResearch Laboratories, West Grove, Pa.) or cy2-(Transduction Lab., Lexington, Ky.) conjugated streptavidin. […]

Interleukin 1 receptor antagonist [IL-1Ra]
IL-1β positive β-cells (double immunostaining) [1]: displayed similar results

leptin: rh leptin (PeproTech); protein encoded by the ob gene
IL-1Ra expression in β-cells (double immunostaining) ([2]; 10 nM leptin, 48 hours): decreased IL-1Ra expression in most β-cells | IL-1Ra released into the culture medium and IL-1Ra mRNA ([2]; 15 hours): increased | IL-1Ra released into the culture medium and IL-1Ra mRNA ([2]; 48 hours): marked decrease | IL-1Ra protein (Western blot) ([2]; leptin, 15-hour exposure): decreased IL-1Ra already after a 15-hour exposure

Reference: patent publication US7572770B2, “Use of an interleukin 1 receptor antagonist and/or pyrrolidinedithiocarbamate for the treatment or prophylaxis of type 2 diabetes” (University of Zurich, priority 2002, dated 2009)
